Measurements: patent publication US20140179726A1, “GUT MICROFLORA AS BIOMARKERS FOR THE PROGNOSIS OF CIRRHOSIS AND BRAIN DYSFUNCTION” (priority 2011, published 2014)

Columns and labels:
[1] = tested on: cirrhotic patients with HE; assay: Comparison within the HE group: cognitive battery (PHES, block design, ICT) (Example 1); assay type: in vivo, human; conditions: HE patients on therapy, mean ± SD
Method: All subjects underwent a mini-mental status exam and only those scoring above 25 were included in the full study (11). Participants then underwent a 24-hour dietary recall. Subsequently a recommended cognitive battery consisting of the following tests was administered to the cirrhotic patients; (a) Psychometric hepatic encephalopathy score (PHES), (b) block design test (BDT: subjects are required to replicate standardized designs with given blocks in a timed manner. The score is based on the designs correctly copied) and (c) Inhibitory control test. [This is a 15 minute computerized test. Subjects are instructed to respond to alternating presentations of X and Y on the screen (targets) while inhibiting response when X and Y are not alternating (lures)] (3, 41). The PHES consists of 5 tests: number connection test-A/B (NCT-A/B: subjects are asked to “join the dots” between numbers or numbers and alphabets in a timed fashion and the number of seconds required is the outcome), digit symbol (DST: subjects are required to copy corresponding figures from a given list within 2 minutes and the number correctly copied is the result), line drawing [LDTt (time) and LDTe (errors): subjects are required to trace a line between two parallel lines and balance between speed and accuracy. Time required and the number of times the subject's line strays beyond the marked lines (errors) are recorded] and serial dotting (SDT, subjects are asked to dot the center of a group of blank circles and the time required is the outcome)]. The PHES is a validated battery for cognitive dysfunction in cirrhosis and tests for psychomotor speed, visuo-motor coordination, attention and set-shifting(32). The BDT tests for visuo-motor coordination. The ICT is a validated computerized test of attention, psychomotor speed, response inhibition and working memory. A high score on BDT, DST and ICT targets and a low score on the rest of the tests indicates good cognitive performance. Cirrhotic patients also underwent serum collection for inflammatory cytokines testing for innate immunity [IL-1b, IL-6, TNF-α (tumor necrosis factor-alpha)], Th1 response ([IFN-γ (interferon-gamma) and IL-2], Th2 response (IL-4, IL-10, IL-13], Th17 response (IL-17 and IL-23), and endotoxin. These were analyzed in duplicate by multiplex bead-based sandwich ELISA and LAL assay for endotoxin using published techniques by AssayGate Inc, Ijamsville, Md. (4, 17, 45).
The cirrhosis group was divided into those with and without HE and were compared. Data from the significant variables between HE and non-HE groups were combined in a MANOVA model. Within HE patients, comparison was made between those on lactulose alone to those with lactulose and rifaximin. Microbiome abundance comparisons between groups were made at a family level using non-parametric tests. A comparison was performed between patients on and withdrawn off of lactulose therapy using the Wilcoxon matched-pair signed rank tests. All values are presented as mean±standard deviation unless mentioned otherwise.

[2] = tested on: cirrhotic patients with HE; assay: Cognitive performance, HE patients on rifaximin vs only on lactulose (Example 2); assay type: in vivo, human
Source text: Patients with cirrhosis with or without HE were included for a one-time visit. We excluded patients with a current infection (defined by elevated white blood cell (WBC) count, clinical suspicion or fever), variceal bleeding within the last 4 weeks, on gut-absorbable antibiotics, or had alcohol or illicit drug intake within 3 months (checked by drug and alcohol screens). […] Patients in the “HE” group had suffered at least one HE episode within the last 3 months and were currently controlled on lactulose alone or lactulose with rifaximin.
During the visit, the subjects underwent a physical examination and measurement of body mass index (BMI), detailed analysis of medical records including current medications, a detailed dietary recall and collection of stool and blood samples. All subjects underwent a mini-mental status exam and only those scoring above 25 were included in the full study (14). Subsequently a recommended cognitive battery consisting of the following tests was administered; (a) Psychometric hepatic encephalopathy score (PHES), (b) block design test (subjects are required to replicate designs with given blocks in a timed manner) and (c) Inhibitory control test [ICT: Subjects are instructed to respond to alternating presentations of X and Y on the screen (targets) while inhibiting response when X and Y are not alternating (lures)] (5, 41). The PHES consists of number connection test-A/B (subjects are asked to “join the dots” between numbers or numbers and alphabets in a timed fashion), digit symbol (subjects are required to copy corresponding figures from a given list within 2 minutes), line drawing (time) and (errors): subjects are required to trace a line between two parallel lines and balance between speed and accuracy. Time required and the number of times the subject's line strays beyond the marked lines (errors) are recorded] and serial dotting (subjects are asked to dot the center of a group of blank circles)]. The PHES is a validated battery for cognitive dysfunction in cirrhosis and tests for psychomotor speed, visuo-motor coordination, attention and set-shifting(32). Block design tests for visuo-motor coordination. A high score on block, digit symbol and ICT targets and a low score on the rest indicate good performance.
Statistical analysis: Cirrhotics with HE were compared to those without HE with respect to BMI, inflammatory markers, cognitive performance and microbiome constituents. Unpaired t-tests were used to compare demographics, cognitive tests and inflammatory markers. Since the microbiome constituents tend to be sparse and non-parametrically distributed, we used Metastats to compare microbiome between stool and mucosa of patients with and without HE (42). Metastats performs statistical analysis (to investigate metagenomic differences) along with biomarker discovery (to evaluate specific features underlying these differences) based on repeated t statistics and Fisher's tests on random permutations (34). We also performed Metastats analysis between the mucosal microbiome compared to the stool microbiome in patients with HE and without HE and those in HE on or not on rifaximin. Principal Component Analysis (PCO) on the abundance tables and weighted and unweighted UNIFRAC analysis using the QIIME pipeline were also performed (22, 25). Subsequently, we analyzed the correlations between MELD score, BMI, inflammatory markers, cognitive tests and microbiome constituents using a correlation network analysis obtained through a customized statistical script in R (7) using a P-value cutoff of <0.05 and an R value >0.5 to identify the most significant relationships (4, 16).

In the case of `OC[C@H]1O[C@@H](O[C@@H]2[C@@H](CO)OC(O)(CO)[C@H]2O)[C@H](O)[C@@H](O)[C@H]1O` (mixture of isomers) [lactulose], the ICT targets ([1]; high = good cognition) is reported as 90.6 ± 8.64%, the block design ([1]; high = good cognition) is reported as 24.9 ± 24.8 score and the digit symbol ([1]; high = good cognition) is reported as 36.5 ± 14.0 score. It also gave an ICT lures ([1]; high = poor cognition) of 17.4 ± 10.8 number, a Line drawing errors ([1]; high = poor cognition) of 28.0 ± 18.6 score and a Line drawing time ([1]; high = poor cognition) of 106.9 ± 54.5 s. The “number connection-A” value ([1]; high = poor cognition) was 55.2 ± 34.1 s, the “number connection-B” value ([1]; high = poor cognition) was 189 ± 127 s and the serial dotting ([1]; high = poor cognition) was 88.7 ± 29.2 s. It also gave a block design ([2]; high = good) of 19.8 score, a digit symbol ([2]; high = good) of 38 score and a targets ([2]; high = good) of 90%. For the same molecule, the line tracing errors ([2]; high = poor) was 44.9, the line tracing time ([2]; high = poor) was 127.3 and the lures ([2]; high = poor) was 16.9 responses. For the same molecule, the “number connection-A” value ([2]; high = poor) was 52.25 s, the “number connection-B” value ([2]; high = poor) was 145.8 s and the serial dotting ([2]; high = poor) was 84.0 s.
